Experimental data published in patent publication US20250215039A1, “NUCLEOSIDES FOR TREATING CANCER” (PRIMEFOUR THERAPEUTICS, INC., priority 2022, published 2025).
pIC50: −log10 of the molar value. Like-named read-outs stand apart in the source and are kept apart here.

Tested on: cancer cell lines
Test: Cancer cell proliferation activity (CellTiterGlo, 72 h)
Type: cell-based
Conditions: 72 h, 72 h, read-out: IC50
Summary of the method: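 Cells seeded overnight at 37 °C, then dosed with compound at 0.1% final DMSO and incubated 72 h at 37 °C (5% or 10% CO2 by medium).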

## O=c1[nH]c(=O)n([C@H]2C[C@H](O)[C@](CO)(CF)O2)cc1F [Cpd. No. 112, 5-fluoro-1-((2R,4S,5R)-5-(fluoromethyl)-4-hydroxy-5-(hydroxymethyl)tetrahydrofuran-2-yl)pyrimidine-2,4(1H,3H)-dione]
5637 cell line (bladder)
  pIC50: 5.54
CLS439 cell line (bladder)
  pIC50: < 4.30
HS729 cell line (muscle)
  pIC50: < 4.30
HSS78T cell line
  pIC50: < 4.30
JAR cell line (placenta)
  pIC50: < 4.30
SKMELS cell line
  pIC50: < 4.30
Homo sapiens, 22Rv1, 72 h, 22RV1 cell line (prostate)
  pIC50: 5.82
Homo sapiens, 786-0, 72 h, 786O cell line (kidney)
  pIC50: < 4.30
Homo sapiens, A204, 72 h, A204 cell line (muscle)
  pIC50: 5.28
Homo sapiens, A549, 72 h, A549 cell line
  pIC50: 5.60
Homo sapiens, A673, 72 h, A673 cell line (bone)
  pIC50: 5.27
Homo sapiens, A2780, 72 h, A2780 cell line (ovary)
  pIC50: < 4.30
Homo sapiens, A-375, 72 h, A375 cell line (skin)
  pIC50: 5.20
Homo sapiens, A-431, 72 h, A431 cell line (skin)
  pIC50: 6.47
Homo sapiens, ACHN, ACHN cell line (kidney)
  pIC50: 5.82
Homo sapiens, ASPC1, 72 h, ASPC1 cell line (pancreas)
  pIC50: 6.24
Homo sapiens, BT-20, 72 h, BT20 cell line (breast)
  pIC50: < 4.30
Homo sapiens, BXPC-3, 72 h, BXPC3 cell line (pancreas)
  pIC50: 7.10
Homo sapiens, C-33-A, C33A cell line (cervical)
  pIC50: 5.41
Homo sapiens, CAKI-1, 72 h, CAKI1 cell line (kidney)
  pIC50: < 4.30
Homo sapiens, COLO 205, 72 h, COLO205 cell line (colon)
  pIC50: 5.74
Homo sapiens, COLO-678, 72 h, COLO678 cell line (colon)
  pIC50: < 4.30
Homo sapiens, Ca-Ski, CASKI cell line (cervical)
  pIC50: 5.15
Homo sapiens, Caco-2, 72 h, CACO2 cell line (colon)
  pIC50: < 4.30
Homo sapiens, Calu-6, 72 h, CALU6 cell line (lung)
  pIC50: 5.33
Homo sapiens, DLD-1, 72 h, DLD1 cell line (colon)
  pIC50: < 4.30
Homo sapiens, DU-145, 72 h, DU145 cell line (prostate)
  pIC50: 5.50
Homo sapiens, EFO-21, 72 h, EFO21 cell line (ovary)
  pIC50: 4.77
Homo sapiens, EJ-28, 72 h, EJ28 cell line (bladder)
  pIC50: 5.27
Homo sapiens, Granta-519, 72 h, GRANTA-519 cell line (hematological)
  pIC50: 5.48
Homo sapiens, HCT-15, 72 h, HCT15 cell line (colon)
  pIC50: < 4.30
Homo sapiens, HCT-116, 72 h, HCT116 cell line (colon)
  pIC50: < 4.30
Homo sapiens, HEK293, 72 h, HEK293 cell line (kidney)
  pIC50: < 4.30
Homo sapiens, HL-60, 72 h, HL-60 cell line (hematological)
  pIC50: < 4.30
Homo sapiens, HT-29, 72 h, HT29 cell line (colon)
  pIC50: 5.55
Homo sapiens, HT-1080, 72 h, HT1080 cell line (connective tissue)
  pIC50: < 4.30
Homo sapiens, HeLa, HELA cell line (cervical)
  pIC50: < 4.30
Homo sapiens, HepG2, 72 h, HEPG2 cell line (liver)
  pIC50: 5.47
Homo sapiens, IGROV-1, 72 h, IGROV1 cell line (ovary)
  pIC50: < 4.30
Homo sapiens, IMR-90, 72 h, IMR.90 cell line
  pIC50: < 4.30
Homo sapiens, J82, 72 h, J82 cell line (bladder)
  pIC50: 5.88
Homo sapiens, JEG-3, 72 h, JEG3 cell line (placenta)
  pIC50: 5.38
Homo sapiens, JIMT-1, 72 h, JIMT1 cell line (breast)
  pIC50: < 4.30
Homo sapiens, K562, 72 h, K-562 cell line (hematological)
  pIC50: < 4.30
Homo sapiens, Kasumi 1, 72 h, KASUMI-1 cell line (hematological)
  pIC50: < 4.30
Homo sapiens, L-363, 72 h, L-363 cell line (hematological)
  pIC50: 5.25
Homo sapiens, LoVo, LOVO cell line (colon)
  pIC50: 5.71
Homo sapiens, MCF7, 72 h, MCF7 cell line (breast)
  pIC50: 5.98
Homo sapiens, MDA-MB-231, 72 h, MDAMB231 cell line (breast)
  pIC50: < 4.30
Homo sapiens, MDA-MB-435, 72 h, MDAMB435 cell line (skin)
  pIC50: < 4.30
Homo sapiens, MDA-MB-436, 72 h, MDAMB436 cell line (breast)
  pIC50: 5.84
Homo sapiens, MDA-MB-468, 72 h, MDAMB468 cell line (breast)
  pIC50: < 4.30
Homo sapiens, MG-63, 72 h, MG63 cell line (bone)
  pIC50: 5.33
Homo sapiens, MHH-ES-1, 72 h, MHHES1 cell line (bone)
  pIC50: < 4.30
Homo sapiens, MIA PaCa-2, 72 h, MIAPACA2 cell line (pancreas)
  pIC50: 5.19
Homo sapiens, MINO, MINO cell line (hematological)
  pIC50: 5.64
Homo sapiens, MV4-11, 72 h, MV4-11 cell line (hematological)
  pIC50: 6.10
Homo sapiens, NCI-H23, 72 h, NCI-H23 cell line (lung)
  pIC50: 5.31
Homo sapiens, NCI-H82, 72 h, NCIH82 cell line (lung)
  pIC50: < 4.30
Homo sapiens, NCI-H292, 72 h, NCIH292 cell line (lung)
  pIC50: < 4.30
Homo sapiens, NCI-H460, 72 h, NCIH460 cell line (lung)
  pIC50: 5.64
Homo sapiens, OVCAR-3, 72 h, OVCAR3 cell line (ovary)
  pIC50: < 4.30
Homo sapiens, OVCAR-4, 72 h, OVCAR4 cell line (ovary)
  pIC50: < 4.30
Homo sapiens, PANC-1, 72 h, PANC1 cell line (pancreas)
  pIC50: < 4.30
Homo sapiens, PC-3, 72 h, PC3 cell line (prostate)
  pIC50: < 4.30
Homo sapiens, PLC-PRF-5, 72 h, PLCPRF5 cell line (liver)
  pIC50: 5.42
Homo sapiens, Panc1005, 72 h, PANC1005 cell line (pancreas)
  pIC50: < 4.30
Homo sapiens, RD, RD cell line (muscle)
  pIC50: < 4.30
Homo sapiens, Ramos, RAMOS cell line (hematological)
  pIC50: < 4.30
Homo sapiens, SAOS-2, 72 h, SAOS2 cell line (bone)
  pIC50: 5.18
Homo sapiens, SF-268, 72 h, SF268 cell line (brain)
  pIC50: 5.40
Homo sapiens, SF-295, 72 h, SF295 cell line (brain)
  pIC50: 5.44
Homo sapiens, SK-BR-3, 72 h, SKBR3 cell line (breast)
  pIC50: 6.66
Homo sapiens, SK-HEP1, 72 h, SKHEP1 cell line (liver)
  pIC50: < 4.30
Homo sapiens, SK-LMS-1, 72 h, SKLMS1 cell line (uterus)
  pIC50: 5.45
Homo sapiens, SK-MEL-28, 72 h, SKMEL28 cell line (skin)
  pIC50: < 4.30
Homo sapiens, SK-N-AS, SKNAS cell line (brain)
  pIC50: < 4.30
Homo sapiens, SK-N-SH, SKNSH cell line (brain)
  pIC50: < 4.30
Homo sapiens, SK-OV-3, 72 h, SKOV3 cell line (ovary)
  pIC50: 5.50
Homo sapiens, SNB-75, 72 h, SNB75 cell line (brain)
  pIC50: < 4.30
Homo sapiens, SU-DHL10, 72 h, SU-DHL-10 cell line (hematological)
  pIC50: < 4.30
Homo sapiens, SU-DHL-6, 72 h, SU-DHL-6 cell line (hematological)
  pIC50: < 4.30
Homo sapiens, SW-620, 72 h, SW620 cell line (colon)
  pIC50: 5.77
Homo sapiens, T-24, 72 h, T24 cell line (bladder)
  pIC50: 5.28
Homo sapiens, TE-671, 72 h, TE671 cell line (muscle)
  pIC50: < 4.30
Homo sapiens, THP-1, 72 h, THP-1 cell line (hematological)
  pIC50: 5.25
Homo sapiens, U2OS, U2OS cell line (bone)
  pIC50: < 4.30
Homo sapiens, U-87 MG, U87MG cell line (brain)
  pIC50: < 4.30
Homo sapiens, UMUC3, 72 h, UMUC3 cell line (bladder)
  pIC50: 5.11
Homo sapiens, UO-31, 72 h, UO31 cell line (kidney)
  pIC50: < 4.30
Homo sapiens, WSU-NHL, WSU-NHL cell line (hematological)
  pIC50: 5.25
MT-3, 72 h, MT3 cell line (breast)
  pIC50: 5.50
NCI-H358M, NCIH358M cell line (lung)
  pIC50: 5.04
PBMC, PBMC (hematological)
  pIC50: < 4.30
RD-ES, RDES cell line (bone)
  pIC50: 5.46
